Results as given in patent publication US7163689B2, “Intravenous valproate for acute treatment of migraine headache” (priority 1999, dated 2007).
Where “and” joins values, the source holds several entries; their conditions need not be identical. Equal entries are not always repeated.

Key:
Format in all cases: in vivo, human
[1] = test system: patients with moderate to severe migraine headaches of duration of 24 to 96 hrs; assay: Pilot study: IV valproate vs IM DHE with metoclopramide for abortive treatment of acute migraine headache (Example 1); settings: for % Headache Relief: 5 patients per group; for Headache Severity / Nausea/vomiting / Phonophobia / Photophobia: individual patient; for Headache Severity: grade 0-3; for Nausea/vomiting / Phonophobia / Photophobia: presence; for patients who had nausea / patients who had relief of phonophobia / patients who had relief of photophobia / patients with response of headache from moderate or severe to none or mild: of 5 patients
Description: This Example describes the results of a pilot study using intravenous valproate for abortive treatment of acute migraine headache. • Methods. Patients with established diagnosis of migraine with and without aura were considered for randomization to intravenous (“IV”) valproate (“VPA”) or intramuscular (“IM”) dihydroergotamine (“DHE”) with metoclopramide, also referred to herein as […]®, for patients with moderate to severe migraine headaches of duration of 24 to 96 hrs. Patients received intravenous infusion of 500 mgs of valproate over 30 mins or 1 mg DHE with 10 mgs metoclopramide IM. Headache severity, presence of nausea, phonophobia and photophobia were rated at baseline, 1 hr, 2 hrs, and 4 hrs. Table I and II. There were 5 patients in each group. • Results. Of the 5 patients receiving valproate, 4 of the 5 had response of their headaches from moderate or severe to none or mild at 1 hr, 2 hrs, and 4 hrs. Of the 5 patients receiving DHE, 3 of the 5 patients had headache response to moderate or severe to mild or none at 1 hr, 2 hrs, and 4 hrs. Table III. […] In the DHE group, 2 of 5 had nausea at baseline, and 1 had nausea at 1 hr, 2 hrs, and 4 hrs. Table IVa. […] In the DHE group, 3 of 5 had relief of photophobia at 1 hr, 4 of 5 had relief at 2 hrs and 4 hrs. […] In the DHE group, 2 of 5 had relief of phonophobia at 1 hr, and 3 of 5 had relief of phonophobia at 2 hrs and 4 hrs. Table IVb. • Conclusions. Intravenous valproate is an alternative therapy for abortive treatment of moderate to severe prolonged acute migraine headache. Anti-convulsant mechanisms may be relevant to treatment of headache symptomatology.

[2] = test system: patients with moderate to severe headaches of 24–72 hours duration; assay: Expanded study: IV VPA vs DHE with metoclopramide IM, acute migraine headache (Example 2); settings: 24-h
[3] = test system: patients with prolonged moderate to severe migraine; assay: Further expanded study (N=40): Depacon vs DHE preceded by metoclopramide, prolonged moderate to severe migraine (Example 3); settings: for Headache Severity (group value, four grade rating) / Number of Patients Who Reported Nausea / Number of Patients Who Reported Phonophobia / Number of Patients Who Reported Photophobia / Responder Rate / Symptom Free patients (no headache or associated symptomatology), % / Symptom Free patients (no headache or associated symptomatology), number: N = 20 per group
Description: This Example describes a further expanded study and analysis of the effectiveness of intravenous VPA for the treatment of acute migraine headache of significant duration. Patient data from the study described in Examples 1 and 2 have been incorporated and further analyzed in addition to new patient data. • Design and Methods. Participants (N=40) were from age 14 to 74 and were established patients of the Western New England Headache Clinic. Patients called to report the pressure of prolonged moderate to severe migraine. They had no evidence of conditions other than migraine to cause headache and were medically stable. […] Patients received a neurological and general physical examination and filled out a four grade baseline headache rating from developed by Western New England Headache Clinic (see Table 2). The patients then received either 500 mg Depacon™ over 15–30 minutes administered in 100 ccs D5W, or 1 mg DHE intramuscularly preceded by 10 mg metoclopramide intramuscularly. Headache severity and associated symptomatology were rated 1, 2, and 4 hours. Results. A total of 40 patients were randomized, 20 in the Depacon™ group and 20 in the DHE group. Table VII summarizes the number of patients in each group by severity of headache (moderate or severe), demographic data and medication assignment.

[4] = test system: patients with moderate to severe migraine headaches of duration of 24 to 96 hrs; assay: Pilot study: IV valproate vs IM DHE with metoclopramide for abortive treatment of acute migraine headache (Example 1); settings: individual patient, grade 0-3; 24-h

SMILES: CN1C[C@H](C(=O)N[C@]2(C)O[C@@]3(O)[C@@H]4CCCN4C(=O)[C@H](Cc4ccccc4)N3C2=O)C[C@@H]2c3cccc4[nH]cc(c34)C[C@H]21 [DHE, dihydroergotamine]
- % experiencing Nausea ([1]; 0-h (baseline)): 40%
- % experiencing Photophobia ([1]; 0-h (baseline)): 100%
- % experiencing phonphobia ([1]; 0-h (baseline)): 80%
- % experiencing Nausea ([1]; 1-h): 20%
- % experiencing Photophobia ([1]; 1-h): 60%
- % experiencing phonphobia ([1]; 1-h): 40%
- % experiencing Nausea ([1]; 2-h): 50%
- % experiencing Photophobia ([1]; 2-h): 50%
- % experiencing phonphobia ([1]; 2-h): 50%
- % experiencing Nausea ([1]; 4-h): 40%
- % experiencing Photophobia ([1]; 4-h): 40%
- % experiencing phonphobia ([1]; 4-h): 40%
- % Headache Relief ([1]; 1-h): 60%
- % Headache Relief ([1]; 2-h): 50%
- % Headache Relief ([1]; 4-h): 60%
- Headache Severity ([1]; 0-h (baseline), Depacon IV 500 mg or DHE 1 mg + Reglan 10 mg): 2 and 3 (4×)
- Headache Severity ([1]; 1-h): 3 and 0 (2×) and 1 and 2
- Headache Severity ([1]; 2-h): 3 and 0 (2×) and 2
- Headache Severity ([1]; 4-h): 3 and 1 and 0 (2×) and 2
- Nausea/vomiting ([1]; 0-h (baseline)): 0
- Phonophobia ([1]; 0-h (baseline)): 0
- Nausea/vomiting ([1]; 1-h): 0
- Phonophobia ([1]; 1-h): 0
- Photophobia ([1]; 1-h): 0
- Nausea/vomiting ([1]; 2-h): 0
- Phonophobia ([1]; 2-h): 0
- Photophobia ([1]; 2-h): 0
- Nausea/vomiting ([1]; 4-h): 0
- Phonophobia ([1]; 4-h): 0
- Photophobia ([1]; 4-h): 0
- Nausea/vomiting ([1]; 24-h): 0
- Phonophobia ([1]; 24-h): 0
- Photophobia ([1]; 24-h): 0
- patients who had nausea ([1]; 1 hr): 1
- patients who had relief of phonophobia ([1]; 1 hr): 2 of 5
- patients who had relief of photophobia ([1]; 1 hr): 3 of 5
- patients with response of headache from moderate or severe to none or mild ([1]; 1 hr): 3 of the 5
- patients who had nausea ([1]; 2 hrs): 1
- patients who had relief of phonophobia ([1]; 2 hrs): 3 of 5
- patients who had relief of photophobia ([1]; 2 hrs): 4 of 5
- patients with response of headache from moderate or severe to none or mild ([1]; 2 hrs): 3 of the 5
- patients who had nausea ([1]; 4 hrs): 1
- patients who had relief of phonophobia ([1]; 4 hrs): 3 of 5
- patients who had relief of photophobia ([1]; 4 hrs): 4 of 5
- patients with response of headache from moderate or severe to none or mild ([1]; 4 hrs): 3 of the 5
- patients who had nausea ([1]; baseline): 2 of 5
- % experiencing Photophobia [2]: 20%
- Photophobia ([2]; individual patient, presence): 0
- % of Patients Who Reported Nausea ([3]; 1 hour): 42%
- % of Patients Who Reported Phonophobia ([3]; 1 hour): 67%
- % of Patients Who Reported Photophobia ([3]; 1 hour): 75%
- % of Patients Who Reported Nausea ([3]; 2 hours): 50%
- % of Patients Who Reported Phonophobia ([3]; 2 hours): 67%
- % of Patients Who Reported Photophobia ([3]; 2 hours): 65%
- % of Patients Who Reported Nausea ([3]; 4 hours): 50%
- % of Patients Who Reported Phonophobia ([3]; 4 hours): 61%
- % of Patients Who Reported Photophobia ([3]; 4 hours): 55%
- % of Patients Who Reported Nausea ([3]; Baseline): (60%)
- % of Patients Who Reported Phonophobia ([3]; Baseline): 90%
- % of Patients Who Reported Photophobia ([3]; Baseline): 100%
- Headache Severity (group value, four grade rating) ([3]; 1 hour): 1.5
- Number of Patients Who Reported Nausea ([3]; 1 hour): 5
- Number of Patients Who Reported Phonophobia ([3]; 1 hour): 12
- Number of Patients Who Reported Photophobia ([3]; 1 hour): 15
- Responder Rate ([3]; 1 hour): 45%
- Headache Severity (group value, four grade rating) ([3]; 2 hours): 1.4
- Number of Patients Who Reported Nausea ([3]; 2 hours): 6
- Number of Patients Who Reported Phonophobia ([3]; 2 hours): 12
- Number of Patients Who Reported Photophobia ([3]; 2 hours): 13
- Responder Rate ([3]; 2 hours): 50%
- Headache Severity (group value, four grade rating) ([3]; 4 hours): 1.2
- Number of Patients Who Reported Nausea ([3]; 4 hours): 6
- Number of Patients Who Reported Phonophobia ([3]; 4 hours): 11
- Number of Patients Who Reported Photophobia ([3]; 4 hours): 11
- Responder Rate ([3]; 4 hours): 60%
- Headache Severity (group value, four grade rating) ([3]; Baseline): 2.6
- Number of Patients Who Reported Nausea ([3]; Baseline): DHE 12
- Number of Patients Who Reported Phonophobia ([3]; Baseline): 18
- Number of Patients Who Reported Photophobia ([3]; Baseline): 20
- Symptom Free patients (no headache or associated symptomatology), % ([3]; at 1 hour): 15%
- Symptom Free patients (no headache or associated symptomatology), number ([3]; at 1 hour): 3
- Symptom Free patients (no headache or associated symptomatology), % ([3]; at 2 hours): 25%
- Symptom Free patients (no headache or associated symptomatology), number ([3]; at 2 hours): 5
- Symptom Free patients (no headache or associated symptomatology), % ([3]; at 4 hours): 30%
- Symptom Free patients (no headache or associated symptomatology), number ([3]; at 4 hours): 6
- Headache Severity [4]: 1 (2×) and 0 and 2
